According to article PMC11671014 (PLOS Pathogens, 2024):
Entries after “also recorded” stand apart in the source; their conditions may differ. Where two headings read alike, the source gives them in different places.

Assays:
[1] = system: CAM 3.II Rev parasites, trophozoite and schizont stages; experiment: Pulsed exposure viability of trophozoite and schizont stages, flow cytometry of Syto-61-labelled parasites; assay type: cell-based, Plasmodium falciparum; conditions: for LD50 Troph: trophozoite
[2] = system: stage V NF54 strain male and female gametocytes; experiment: P. falciparum Dual Gamete Formation Assay (PfDGFA); assay type: cell-based; conditions: Plasmodium falciparum, 48 h
Experimental: Inhibition of the viability of stage V male and female gametocytes was assessed in the P. falciparum Dual Gamete Formation Assay (PfDGFA) as described previously. Briefly, mature stage V NF54 strain gametocytes were incubated with test molecules for 48 h in 384-well plates at 37°C. Gametogenesis was then triggered by cooling the plates to room temperature and addition of xanthurenic acid-containing activating medium (also containing anti-Pfs25 antibody (Mab 4B7) conjugated to a Cy3 fluorophore). Twenty minutes after activation, exflagellation was imaged in all wells of the plate using a x4 objective and automated brightfield microscopy. The plate was then incubated at 20°C for a further 24 h in the dark. Thereafter, female gamete formation was quantified by automated identification of Pfs25-positive cells. Automated counts were transformed to percent inhibition values with reference to positive 100 nM Cabamiquine (DDD498) and negative (DMSO) controls. Data represent the means of multiple independent biological repeats.

Solubility = assay type: physicochemical
Caco-2 permeability = assay type: in vitro ADME; conditions: human
Experimental: Permeability studies were performed as described previously. In brief, Caco-2 cells were cultured for 21–25 days to differentiate them into enterocyte-like cells. The transepithelial electrical resistance (TEER) was measured to ensure tight junction formation and cells with TEER value more than 250 ohms.cm^2 were used in the study. On the day of the transport study, cells were washed with warm HBSS buffer and equilibrated with buffer for 60 min. ML471 was added at a concentration of 5 μM (containing 50 μM Lucifer Yellow) into a 24 Transwell cell plate (apical 210 μL and basal 1000 μL) and buffer was added in the receiver side. Cells were incubated at 37°C for 60 min and 120 μL aliquots were taken from the receiver side after 30 and 60 min. Samples were mixed with 100 nM carbutamide in acetonitrile (ACN) containing 0.1% formic acid (internal standard). Samples were centrifuged at 2,056 x g for 10 min and the supernatant was collected and analyzed for quantification of the test article by LC-MS [49].

[3] = system: P. falciparum (Pf3D7^0087/N9); experiment: Therapeutic efficacy and tolerability in the SCID mouse P. falciparum model; assay type: in vivo, Plasmodium falciparum in NODscidIL2Rγ^null mice
Experimental: The model using P. falciparum Pf3D7^0087/N9 in NODscidIL2Rγ^null mice engrafted with human RBCs was adapted from a previously described procedure. Female NODscidIL2Rγ^null mice were purchased from Charles River (Germany). Briefly, two engrafted mice/dosing group (females, 20–22 g) were infected intravenously with 2 x 10^7 P. falciparum (Pf3D7^0087/N9) on day 0. The antimalarial efficacy was assessed following administration (p.o.) of 100 or 200 mg/kg of compound or of 4 daily doses of 50 mg/kg, initiated on day 3 post-infection. The effect on blood parasitemia was measured by microscopic analysis of Giemsa-stained blood smears (on days 3, 4, 5, 6 and 7 post-infection). Mice were euthanized on day 7. Animal were monitored for symptoms of acute toxicity, including decreased activity, sunken flanks, ataxia and blood in faeces.

| Structure (SMILES) | LD50 Schizont ([1]; 30 h continuous) [nM] | LD50 Schizont ([1]; drug pulse time 3 h) [nM] | LD50 Schizont ([1]; drug pulse time 6 h) [nM] | LD50 Schizont ([1]; drug pulse time 9 h) [nM] | fold lower sensitivity of trophozoite stage compared with schizont stage ([1]; short pulses of 3 h or 6 h) [fold] | LD50 Troph ([1]; 48 h continuous) [nM] | LD50 Troph ([1]; drug pulse time 3 h) [nM] | LD50 Troph ([1]; drug pulse time 6 h) [nM] | LD50 Troph ([1]; drug pulse time 9 h) [nM] | LD50 Troph ([1]; drug pulse time 24 h) [nM] | IC50 ([2]; female, read-out: Dual gamete formation assay (female) IC50(48h)) [nM] | IC50 ([2]; male, read-out: Dual gamete formation assay (male) IC50(48h)) [nM] | solubility (Solubility) [µM] | Papp A→B at 60 min, 5 μM (Caco-2 permeability; 5 μM, 60 min, second figure of the cell, read-out: Caco2 Papp (A to B)) [×10⁻⁶ cm/s] | Papp B→A at 60 min, 5 μM (Caco-2 permeability; 5 μM, 60 min, third figure of the cell, read-out: Caco2 Papp (B to A)) [×10⁻⁶ cm/s] | efflux ratio at 60 min, 5 μM (Caco-2 permeability; equals B to A / A to B, read-out: Caco2, first figure of the cell, not given) | effect on 3D7 parasitemia, 4 x daily doses ([3]; 4 x daily doses of 50 mg/kg p.o. from day 3 post-infection) | tolerability / toxicity in SCID mice (in words) ([3]; 100 or 200 mg/kg p.o. single dose, 4 x 50 mg/kg p.o.) | effect on 3D7 parasitemia, single dose regimen ([3]; either 100 or 200 mg/kg p.o. on day 3 post-infection) |
| --- | --- | --- | --- | --- | --- | --- | --- | --- | --- | --- | --- | --- | --- | --- | --- | --- | --- | --- | --- |
| Nc1ncnc2c1c(OC(F)F)nn2[C@@H]1O[C@H](COS(N)(=O)=O)[C@@H](O)[C@H]1O [ML901] | 8.5 ± 0.7 | 88 ± 1 | 36 ± 6 | 21 ± 12 | 10 to 20 | 3.9 ± 0.8 | 1700 ± 460 | 680 ± 48 | 290 ± 150 | 4.0 ± 0.0 |  |  |  |  |  |  |  |  |  |
| CC(C)c1nn([C@@H]2O[C@H](COS(N)(=O)=O)[C@@H](O)[C@H]2O)c2ncnc(N)c12 [ML471, ((2R,3S,4R,5R)-5-(4-amino-3-isopropyl-1H-pyrazolo[3,4-d]pyrimidin-1-yl)-3,4-dihydroxytetrahydrofuran-2-yl)methyl sulfamate] |  |  |  |  |  |  |  |  |  |  | 260 | 49 | > 100 | 0.17 | 1.3 | 7.6 | reduced the 3D7 parasitemia to baseline | well tolerated; also recorded: no evidence of toxicity | reduction of 3D7 parasitemia to baseline |
